According to publication PMC5218480 (PLoS ONE, 2017):

Test system: MV-4-11 cells
Test: Gene expression microarray analysis (Affymetrix PrimeView) and GSEA
Assay type: cell-based, human
Design: RFU PODN (11730768_x_at) / Fold change /veh PODN (11730768_x_at) / RFU LINC00158 (11744669_a_at) / Fold change /veh LINC00158 (11744669_a_at) / RFU DUSP10 (11751237_a_at) / Fold change /veh DUSP10 (11751237_a_at) / RFU ID3 (11757404_x_at) / Fold change /veh ID3 (11757404_x_at) / RFU PLEKHG5 (11737974_s_at) / Fold change /veh PLEKHG5 (11737974_s_at) / RFU LRRC4B (11730491_at) / Fold change /veh LRRC4B (11730491_at) / RFU GIMAP4 (11747438_a_at) / Fold change /veh GIMAP4 (11747438_a_at) / RFU KRT8 (11758183_x_at) / Fold change /veh KRT8 (11758183_x_at) / RFU CNN1 (11734310_a_at) / Fold change /veh CNN1 (11734310_a_at) / RFU VPS37D (11726825_at) / Fold change /veh VPS37D (11726825_at) / RFU C10orf10 (11716522_x_at) / Fold change /veh C10orf10 (11716522_x_at) / RFU KIR2DL2 /// KIR2DL4 /// KIR2DL5A /// KIR2DL5B /// KIR2DS1 /// KIR2DS2 /// KIR2DS3 /// KIR2DS4 /// KIR3DL3 /// KIR3DL3 /// KIR3DS1 (11738374_at) / Fold change /veh KIR2DL2 /// KIR2DL4 /// KIR2DL5A /// KIR2DL5B /// KIR2DS1 /// KIR2DS2 /// KIR2DS3 /// KIR2DS4 /// KIR3DL3 /// KIR3DL3 /// KIR3DS1 (11738374_at) / RFU C1QL1 (11718748_at) / Fold change /veh C1QL1 (11718748_at) / RFU TMPRSS4 (11747572_a_at) / Fold change /veh TMPRSS4 (11747572_a_at) / RFU HAMP (11756126_x_at) / Fold change /veh HAMP (11756126_x_at) / RFU RNFT2 (11725882_a_at) / Fold change /veh RNFT2 (11725882_a_at) / RFU NR4A2 (11747474_a_at) / Fold change /veh NR4A2 (11747474_a_at) / RFU ABCC12 (11746883_a_at) / Fold change /veh ABCC12 (11746883_a_at) / RFU TMEM136 (11760407_x_at) / Fold change /veh TMEM136 (11760407_x_at) / RFU CLDN22 /// WWC2 (11732394_at) / Fold change /veh CLDN22 /// WWC2 (11732394_at) / RFU HLA-DPB1 (11760878_x_at) / Fold change /veh HLA-DPB1 (11760878_x_at) / RFU SPINT1 (11716480_a_at) / Fold change /veh SPINT1 (11716480_a_at) / RFU GAP43 (11754022_s_at) / Fold change /veh GAP43 (11754022_s_at) / RFU A4GNT (11735810_at) / Fold change /veh A4GNT (11735810_at) / RFU PRB3 (11715151_x_at) / Fold change /veh PRB3 (11715151_x_at) / RFU TUBB4B (11761932_at) / Fold change /veh TUBB4B (11761932_at) / RFU CAPN14 (11732068_a_at) / Fold change /veh CAPN14 (11732068_a_at) / RFU TMCC2 (11721928_a_at) / Fold change /veh TMCC2 (11721928_a_at) / RFU IRGQ (11745062_a_at) / Fold change /veh IRGQ (11745062_a_at) / RFU FAM174B (11720279_a_at) / Fold change /veh FAM174B (11720279_a_at) / RFU TMPRSS4 (11748680_a_at) / Fold change /veh TMPRSS4 (11748680_a_at) / RFU FAM212B (11763350_a_at) / Fold change /veh FAM212B (11763350_a_at) / RFU PLEKHG5 (11743358_a_at) / Fold change /veh PLEKHG5 (11743358_a_at) / RFU ZSCAN30 (11745921_a_at) / Fold change /veh ZSCAN30 (11745921_a_at) / RFU CMKLR1 (11741424_a_at) / Fold change /veh CMKLR1 (11741424_a_at) / RFU LOC101060620 /// MAPK8IP1 (11723275_at) / Fold change /veh LOC101060620 /// MAPK8IP1 (11723275_at) / RFU SPTSSB (11747773_x_at) / Fold change /veh SPTSSB (11747773_x_at) / RFU PRSS12 (11739890_at) / Fold change /veh PRSS12 (11739890_at) / RFU BIN1 (11741810_x_at) / Fold change /veh BIN1 (11741810_x_at) / RFU WNT11 (11732464_a_at) / Fold change /veh WNT11 (11732464_a_at) / RFU C10orf10 (11716521_a_at) / Fold change /veh C10orf10 (11716521_a_at) / RFU C5orf56 (11738089_at) / Fold change /veh C5orf56 (11738089_at) / RFU CYB561 (11721691_x_at) / Fold change /veh CYB561 (11721691_x_at) / RFU ANKRD19P (11752326_a_at) / Fold change /veh ANKRD19P (11752326_a_at) / RFU OR2T12 /// OR2T33 /// OR2T8 (11738714_s_at) / Fold change /veh OR2T12 /// OR2T33 /// OR2T8 (11738714_s_at) / RFU VCAN (11748164_a_at) / Fold change /veh VCAN (11748164_a_at) / RFU JSRP1 (11732532_at) / Fold change /veh JSRP1 (11732532_at) / RFU KRTAP10-11 (11738290_x_at) / Fold change /veh KRTAP10-11 (11738290_x_at) / RFU MYO3A (11730013_a_at) / Fold change /veh MYO3A (11730013_a_at) / RFU EBF3 (11725865_a_at) / Fold change /veh EBF3 (11725865_a_at) / RFU CAMK2N1 (11719241_x_at) / Fold change /veh CAMK2N1 (11719241_x_at) / RFU C5orf56 (11738088_a_at) / Fold change /veh C5orf56 (11738088_a_at) / RFU OLFML3 (11715873_a_at) / Fold change /veh OLFML3 (11715873_a_at) / RFU LOC100653217 /// NTM (11731650_a_at) / Fold change /veh LOC100653217 /// NTM (11731650_a_at) / RFU MAPK11 (11762145_a_at) / Fold change /veh MAPK11 (11762145_a_at) / RFU FIZ1 (11724087_x_at) / Fold change /veh FIZ1 (11724087_x_at) / RFU OASL (11726364_x_at) / Fold change /veh OASL (11726364_x_at) / RFU SOX15 (11748057_x_at) / Fold change /veh SOX15 (11748057_x_at) / RFU CD79A (11719716_a_at) / Fold change /veh CD79A (11719716_a_at) / RFU HIST1H1D (11736915_at) / Fold change /veh HIST1H1D (11736915_at) / RFU CASKIN2 (11723855_a_at) / Fold change /veh CASKIN2 (11723855_a_at) / RFU LOC730098 (11760151_x_at) / Fold change /veh LOC730098 (11760151_x_at) / RFU OR4N2 (11742367_at) / Fold change /veh OR4N2 (11742367_at) / RFU PRRT2 (11749266_a_at) / Fold change /veh PRRT2 (11749266_a_at) / RFU SNX32 (11753110_a_at) / Fold change /veh SNX32 (11753110_a_at) / RFU CDHR5 (11726645_a_at) / Fold change /veh CDHR5 (11726645_a_at) / RFU RCAN1 (11760418_a_at) / Fold change /veh RCAN1 (11760418_a_at) / RFU FAM167A (11723789_a_at) / Fold change /veh FAM167A (11723789_a_at) / RFU FAM26E (11764081_at) / Fold change /veh FAM26E (11764081_at) / RFU ISYNA1 (11749810_s_at) / Fold change /veh ISYNA1 (11749810_s_at) / RFU ACY1 (11761880_at) / Fold change /veh ACY1 (11761880_at) / RFU 11764098_at / Fold change /veh 11764098_at / RFU SAMD14 (11745864_x_at) / Fold change /veh SAMD14 (11745864_x_at) / RFU NPB (11741838_a_at) / Fold change /veh NPB (11741838_a_at) / RFU TMPRSS6 (11731388_a_at) / Fold change /veh TMPRSS6 (11731388_a_at) / RFU KRTAP10-2 (11738614_at) / Fold change /veh KRTAP10-2 (11738614_at) / RFU ARHGAP8 /// PRR5-ARHGAP8 (11727945_x_at) / Fold change /veh ARHGAP8 /// PRR5-ARHGAP8 (11727945_x_at) / RFU KRTAP5-7 /// NADSYN1 (11734609_at) / Fold change /veh KRTAP5-7 /// NADSYN1 (11734609_at) / RFU RASL12 (11751679_a_at) / Fold change /veh RASL12 (11751679_a_at) / RFU CDKN2B (11736163_a_at) / Fold change /veh CDKN2B (11736163_a_at) / RFU PRF1 (11729649_at) / Fold change /veh PRF1 (11729649_at) / RFU, ZNF638 /// ZNF638-IT1 / Fold change vs veh, ZNF638 /// ZNF638-IT1 / RFU, PANK3 / Fold change vs veh, PANK3 / RFU, SH3YL1 / Fold change vs veh, SH3YL1 / RFU, ZEB2 / Fold change vs veh, ZEB2 / RFU, NRIP1 / Fold change vs veh, NRIP1 / RFU, PTTG1IP / Fold change vs veh, PTTG1IP / RFU, CAPN2 / Fold change vs veh, CAPN2 / RFU, MED14 / Fold change vs veh, MED14 / RFU, SNORA58 / Fold change vs veh, SNORA58 / RFU, C1orf63 / Fold change vs veh, C1orf63 / RFU, LRRFIP1 / Fold change vs veh, LRRFIP1 / RFU, NDUFAF7 / Fold change vs veh, NDUFAF7 / RFU, SLC12A2 / Fold change vs veh, SLC12A2 / RFU, IBTK / Fold change vs veh, IBTK / RFU, ESF1 / Fold change vs veh, ESF1 / Fold change vs veh, TMEM50B / RFU, TAOK1 / Fold change vs veh, TAOK1 / RFU, ACBD3 / Fold change vs veh, ACBD3 / RFU, TMA16 / Fold change vs veh, TMA16 / RFU, RWDD3 / Fold change vs veh, RWDD3 / RFU, BCAT1 / Fold change vs veh, BCAT1 / RFU, EDEM3 / Fold change vs veh, EDEM3 / RFU, TMEM33 / Fold change vs veh, TMEM33 / RFU, WDR75 / Fold change vs veh, WDR75 / RFU, AHCTF1 / Fold change vs veh, AHCTF1 / RFU, TFRC / Fold change vs veh, TFRC / RFU, ZDHHC17 / Fold change vs veh, ZDHHC17 / RFU, NOM1 / Fold change vs veh, NOM1 / RFU, ARL8B / Fold change vs veh, ARL8B / RFU, ZBTB11 / Fold change vs veh, ZBTB11 / RFU, TAMM41 / Fold change vs veh, TAMM41 / RFU, KIAA1704 /// LOC100996395 / Fold change vs veh, KIAA1704 /// LOC100996395 / RFU, ING1 / Fold change vs veh, ING1 / RFU, TRMT61B / Fold change vs veh, TRMT61B / RFU, FUBP3 / Fold change vs veh, FUBP3 / RFU, TP53 / Fold change vs veh, TP53 / RFU, TNKS2 / Fold change vs veh, TNKS2 / RFU, ZFP14 / Fold change vs veh, ZFP14 / RFU, ACTR2 / Fold change vs veh, ACTR2 / RFU, PPP3R1 / Fold change vs veh, PPP3R1 / RFU, PIK3R1 / Fold change vs veh, PIK3R1 / RFU, HNRNPA1 / Fold change vs veh, HNRNPA1 / RFU, RNF170 / Fold change vs veh, RNF170 / RFU, ZNF28 / Fold change vs veh, ZNF28 / RFU, RNGTT / Fold change vs veh, RNGTT / RFU, OGT / Fold change vs veh, OGT / RFU, BRD1 / Fold change vs veh, BRD1 / RFU, MARS / Fold change vs veh, MARS / RFU, ZNF655 / Fold change vs veh, ZNF655 / RFU, FAHD1 / Fold change vs veh, FAHD1 / RFU, BDP1 / Fold change vs veh, BDP1 / RFU, LRRCC1 / Fold change vs veh, LRRCC1 / RFU, ARID1A / Fold change vs veh, ARID1A / RFU, ZNF146 / Fold change vs veh, ZNF146 / RFU, ZNF330 / Fold change vs veh, ZNF330 / RFU, GPN3 / Fold change vs veh, GPN3 / RFU, C9orf123 / Fold change vs veh, C9orf123 / RFU, N4BP2L2 / Fold change vs veh, N4BP2L2 / RFU, ARFIP1 / Fold change vs veh, ARFIP1 / RFU, FAM179B / Fold change vs veh, FAM179B / RFU, BCL10 / Fold change vs veh, BCL10 / RFU, UHRF1BP1L / Fold change vs veh, UHRF1BP1L / RFU, BET1 / Fold change vs veh, BET1 / RFU, CNOT2 / Fold change vs veh, CNOT2 / RFU, ZNF268 / Fold change vs veh, ZNF268 / Fold change vs veh, ZNF507 / RFU, DGCR2 / Fold change vs veh, DGCR2 / RFU, WDSUB1 / Fold change vs veh, WDSUB1 / Fold change vs veh, HSP90B1 /// MIR3652 / RFU, ADSS / Fold change vs veh, ADSS / RFU, GK / Fold change vs veh, GK / RFU, ZNF148 / Fold change vs veh, ZNF148 / RFU, TAF9 / Fold change vs veh, TAF9 / RFU, SLC1A5 / Fold change vs veh, SLC1A5 / RFU, SLMO2 / Fold change vs veh, SLMO2 / RFU, ABCC4 / Fold change vs veh, ABCC4 / RFU, LOC101060439 /// RAP1B / Fold change vs veh, LOC101060439 /// RAP1B / RFU, RFX7 / Fold change vs veh, RFX7 / RFU, GTPBP10 / Fold change vs veh, GTPBP10 / RFU, CNEP1R1 / Fold change vs veh, CNEP1R1 / RFU, BIVM-ERCC5 /// ERCC5 / Fold change vs veh, BIVM-ERCC5 /// ERCC5 / RFU, ILF3 / Fold change vs veh, ILF3 / RFU 11762660_at / Fold change /veh 11762660_at / RFU VCAN (11757783_s_at) / Fold change /veh VCAN (11757783_s_at) / RFU DDX43 (11728927_at) / Fold change /veh DDX43 (11728927_at) / RFU KRT8 (11758188_x_at) / Fold change /veh KRT8 (11758188_x_at) / RFU NKD1 (11759106_at) / Fold change /veh NKD1 (11759106_at) / RFU SRD5A1 (11742802_a_at) / Fold change /veh SRD5A1 (11742802_a_at) / RFU TPSAB1 /// TPSB2 (11721975_s_at) / Fold change /veh TPSAB1 /// TPSB2 (11721975_s_at) / RFU GSTM3 (11746129_a_at) / Fold change /veh GSTM3 (11746129_a_at) / RFU IL23R (11737362_x_at) / Fold change /veh IL23R (11737362_x_at) / RFU TMEM51 (11727254_a_at) / Fold change /veh TMEM51 (11727254_a_at) / RFU PIWIL2 (11732686_x_at) / Fold change /veh PIWIL2 (11732686_x_at) / RFU ORM1 (11744905_x_at) / Fold change /veh ORM1 (11744905_x_at) / RFU CCDC152 (11743942_at) / Fold change /veh CCDC152 (11743942_at) / RFU ECM1 (11717891_a_at) / Fold change /veh ECM1 (11717891_a_at) / RFU IL23R (11748794_a_at) / Fold change /veh IL23R (11748794_a_at) / RFU TNFAIP8L3 (11732012_x_at) / Fold change /veh TNFAIP8L3 (11732012_x_at) / RFU MBOAT4 (11741988_at) / Fold change /veh MBOAT4 (11741988_at) / RFU 11764193_at / Fold change /veh 11764193_at / RFU TMEM53 (11763286_at) / Fold change /veh TMEM53 (11763286_at) / RFU MAGEB2 (11727129_at) / Fold change /veh MAGEB2 (11727129_at) / RFU TMEM200A (11744735_a_at) / Fold change /veh TMEM200A (11744735_a_at) / RFU CCDC152 (11751479_a_at) / Fold change /veh CCDC152 (11751479_a_at) / RFU FAM211A (11726209_a_at) / Fold change /veh FAM211A (11726209_a_at) / RFU RGS16 (11746705_a_at) / Fold change /veh RGS16 (11746705_a_at) / RFU VCAN (11755009_s_at) / Fold change /veh VCAN (11755009_s_at) / RFU RHOB (11743442_s_at) / Fold change /veh RHOB (11743442_s_at) / RFU RGS16 (11720943_a_at) / Fold change /veh RGS16 (11720943_a_at) / RFU RGS16 (11720944_at) / Fold change /veh RGS16 (11720944_at) / RFU, VPS4B / Fold change vs veh, VPS4B / RFU, CREB1 / Fold change vs veh, CREB1 / RFU, DNAJC13 / Fold change vs veh, DNAJC13 / RFU, GNAQ / Fold change vs veh, GNAQ / RFU, CDK5R1 / Fold change vs veh, CDK5R1 / RFU, ZRANB3 / Fold change vs veh, ZRANB3 / RFU, CUL4A / Fold change vs veh, CUL4A / RFU, CCNY / Fold change vs veh, CCNY / RFU, UFL1 / Fold change vs veh, UFL1 / RFU, COG3 / Fold change vs veh, COG3 / RFU, DIAPH2 / Fold change vs veh, DIAPH2 / RFU, SKA2 / Fold change vs veh, SKA2 / RFU, AFF3 / Fold change vs veh, AFF3 / RFU, LMF1 / Fold change vs veh, LMF1 / RFU, IPO11 / Fold change vs veh, IPO11 / RFU, DFFB / Fold change vs veh, DFFB / RFU, FOXP1 / Fold change vs veh, FOXP1 / RFU, CARD8 / Fold change vs veh, CARD8 / RFU, STRN3 / Fold change vs veh, STRN3 / RFU, ADK / Fold change vs veh, ADK / RFU, RASSF2 / Fold change vs veh, RASSF2 / RFU, WIPF1 / Fold change vs veh, WIPF1 / RFU, LARP1B / Fold change vs veh, LARP1B / RFU, RASA1 / Fold change vs veh, RASA1 / RFU, RB1 / Fold change vs veh, RB1 / RFU, PPFIA1 / Fold change vs veh, PPFIA1 / RFU, MAT2A / Fold change vs veh, MAT2A / RFU, CCT5 / Fold change vs veh, CCT5 / RFU, WDR92 / Fold change vs veh, WDR92 / RFU, CUX1 / Fold change vs veh, CUX1 / RFU, TTC7A / Fold change vs veh, TTC7A / RFU, TMEM135 / Fold change vs veh, TMEM135 / RFU, DEPTOR / Fold change vs veh, DEPTOR / RFU, CPM / Fold change vs veh, CPM / RFU, DNAJB6 / Fold change vs veh, DNAJB6 / RFU, CACNA2D3 / Fold change vs veh, CACNA2D3 / RFU, DTX4 / Fold change vs veh, DTX4 / RFU, TFCP2 / Fold change vs veh, TFCP2 / RFU, GMCL1 /// GMCL1P1 / Fold change vs veh, GMCL1 /// GMCL1P1 / RFU, AEBP2 / Fold change vs veh, AEBP2 / RFU, SNHG1 /// SNORD22 /// SNORD25 /// SNORD26 /// SNORD27 /// SNORD28 /// SNORD29 /// SNORD31 / Fold change vs veh, SNHG1 /// SNORD22 /// SNORD25 /// SNORD26 /// SNORD27 /// SNORD28 /// SNORD29 /// SNORD31 / Fold change (Aza/veh), C12orf56 (ProbeSet 11735607_a_at) / Fold change (ACY-1035/veh), C12orf56 (ProbeSet 11735607_a_at) / Fold change (Aza/veh), FGFR1OP (ProbeSet 11751329_s_at) / Fold change (ACY-1035/veh), FGFR1OP (ProbeSet 11751329_s_at) / Fold change (Aza/veh), VPS36 (ProbeSet 11739960_a_at) / Fold change (ACY-1035/veh), VPS36 (ProbeSet 11739960_a_at) / RFU SYPL1 (11715823_x_at) / Fold change /veh SYPL1 (11715823_x_at) / RFU IGFBP7 (11715501_s_at) / Fold change /veh IGFBP7 (11715501_s_at) / RFU REEP3 (11722064_at) / Fold change /veh REEP3 (11722064_at) / RFU IGLL1 (11728026_x_at) / Fold change /veh IGLL1 (11728026_x_at): dose or concentration left out as unconfirmed
Details: MV-4-11 cells, 48 hours

SMILES: Nc1ncn([C@@H]2O[C@H](CO)[C@@H](O)[C@H]2O)c(=O)n1 [azacitidine]
- Fold change /veh KRTAP10-11 (11738290_x_at): 1.14
